Laboratory results as given in patent publication US9249135B2, “Therapeutic agent for mood disorders” (KYOWA HAKKO KIRIN CO., LTD., priority 2009, dated 2016).

How the values were obtained:
[1] = system: mice; assay: Forced swim test in mice; type: in vivo, mouse (male ddY-strain)
Text: The forced swim test in rats and mice is widely used for test system which evaluates antidepressant activities (Arch. Int. Pharmacodyn. Ther. 229, p.327 (1977)). The forced swim test is means for evaluating depressive state using the length of time during which the animal ceases its escape behavior due to a sense of helplessness (immobility time) as an index thereof by placing a mouse or a rat in water in an inescapable cylinder. Since immobility time is shortened by existing antidepressants, this is known as an animal model of depression. The male ddY-strain mice (20 to 29 g; Japan SLC, Inc.) were used in this study. A transparent acrylic water bath 10 cm in diameter and 25 cm in height was filled with water at 23° C.±1° C. to a depth of 10 cm. Each mouse was slowly placed in the water bath. At 2 minutes after placement in the bath, immobility time (duration during which no escape behavior was observed) was measured for 4 minutes. The test compound was used for the test in suspension in distilled water for injection (manufactured by Otsuka Pharmaceutical Co.,) containing 0.5 w/v % MC (methylcellulose). […] The antidepressant activity of the test compound was evaluated with the immobility time for the vehicle control group and that for the test compound dose group as indexes. […]

[2] = system: rats; assay: Learned helplessness model of depression in rats; type: in vivo, rat (male SD)
Text: From the effects of existing antidepressants and the like on this system, this test is deemed a higher level animal model in rodents.
The male SD rats (190 to 260 g; Charles River Japan Inc.) were used in this study. On Day 1 of experiment, a partition board was placed in the center of the shuttle box to create two compartments so that the animals could not move from one compartment to another (220×200×260 mm). In each compartment, one rat was placed. The animals were retained in the shuttle box for 50 minutes and exposed to electrical shocks (IES) given via stainless floor grids with the light on. […]
On Day 2 of experiment, the partition board in the center of the shuttle box was removed and replaced by a hurdle 2 cm in height to create two comportments so that the animals could move from one compartment to another. […] Animal's behavior was evaluated according to the following procedures.
FR1: A buzzer was activated for 10 seconds. […] This procedure counted as one trial, and was continuously repeated 15 times.
FR2: Electric stimuli (0.5 mA) were applied for 10 seconds to a rat via the floor grids in the compartment where the animal stayed. […] This procedure counted as one trial, and was continuously repeated 15 times. […]

[3] = system: rats; assay: Forced swim test in rats; type: in vivo, rat (male SD-strain)
Text: The forced swim test in rats and mice is widely used for test system which evaluates antidepressant activities (Arch. Int. Pharmacodyn. Ther. 229, p.327 (1977)). The forced swim test is means for evaluating depressive state using the length of time during which the animal ceases its escape behavior due to a sense of helplessness (immobility time) as an index thereof by placing a mouse or a rat in water in an inescapable cylinder. Since immobility time is shortened by existing antidepressants, this is known as an animal model of depression. The male SD-strain rats (200 to 270 g; Charles River Japan Inc.) were used in this study. A transparent acrylic water bath 18 cm in diameter and 40 cm in height was filled with water at 25° C.±1° C. to a depth of 19 cm. Each rat was slowly placed in the water bath, allowed to stand for 15 minutes, then removed from the bath and dried with a piece of paper towel. The animals were then dried under a table light for 15 minutes and returned to the respective cages (induction of pathological condition). On the following day, the rats were slowly placed in the same water bath. Immediately, immobility time was measured for 5 minutes. […] The antidepressive action of the test compound was evaluated with the immobility time for the vehicle control group and that for the test compound dose group as indexes. […]

Cc1ccc(C(=O)Nc2nc(-c3ccco3)c(C(=O)C3CCOCC3)s2)cn1 [(IC)]
immobility time ([1]; mice, 0.1 mg/kg orally 1 hour before the test, measured for 4 minutes, vehicle 179.0 ± 15.2): 53.1 ± 11.0 s
immobility time compared with that for the vehicle control group ([1]; mouse, in words): shortened
escape rate (escape response %) ([2]; rats with IES loading, FR2 session, dose of 0.3 mg/kg orally 1 hour before the FR1 session): 88.7±6.7%
action on the escape rate reductions by IES loading in the FR2 session ([2]; rats, single oral dose, in words): significant ameliorating action
immobility time compared with that for the vehicle control group ([3]; rat, in words): shortened
immobility time ([3]; rats, 0.1 mg/kg orally 1 hour before the test, measured for 5 minutes, vehicle 204.0 ± 21.0): 81.5 ± 15.1 s
